{
  "source": "patent US20260201006A1",
  "about": "“COACERVATE FORMULATIONS OF CXCR-ACTIVATING PEPTIDES FOR CONTROLLED RELEASE IN OPHTHALMIC AND TOPICAL TREATMENTS” (University of Pittsburgh - Of the Commonwealth System of …, priority 2022, published 2026)",
  "key": {"[1]": {"tested_on": "HCjE cells", "assay": "Goblet cell study: PAS staining of stratified HCjE cells", "type": "cell-based, human", "conditions": "200 ng/ml or 2000 ng/ml, compared to vehicle-treated HCjE cells", "method": "(§1) HCjE cells were maintained in complete keratinocyte serum free medium (KSFM; Invitrogen, Carlsbad, CA) in petri dishes coated with type 1 collagen. When the HCjE cells reached 50% confluence, the culture medium was replaced with growth medium (1:1 DMEM/F12:complete KSFM). When cells reached 100% confluence, the cells were fed with stratification medium (DMEM/F12+10% FBS) with or without the CXCL10p peptide (either 200 ng/ml or 2000 ng/ml). Control cells were fed with the medium supplemented with an equivalent volume of the vehicle (PBS) in which the peptide was dissolved. This medium with or without peptide was replaced every other day for 14 days, after which the cells were either stained with periodic acid-Schiff's (PAS) reagent following the standard protocol, or subjected to total RNA isolation, and qRT-PCR for MUC5AC transcripts with TATA-box binding protein (TBP) as the endogenous control.\nTo further examine the effects of the CXCR3 activating peptide on goblet cell functioning in vitro, stratified HCjE cells are treated with 200 ng/ml CXCR3 activating peptide, 2000 ng/ml CXCR3 activating peptide, or vehicle. Cells are then stained with periodic acid-Schiff's (PAS) reagent."}, "[2]": {"tested_on": "environmental dry eye model", "assay": "Schirmer tear test (STT) in rabbit environmental dry eye model", "type": "in vivo, New Zealand white rabbits", "conditions": "rabbits, 21 days treatment", "method": "The 22-mer CXCL10p peptide (OH-[…]-NH2; SEQ ID NO: 5) was manufactured by PolyPeptide Inc. (San Diego, CA, USA) and purified to >95% purity as a lyophilized powder. The peptide was delivered in three different formulations. For subconjunctival injection, 3 μg of the peptide was dissolved in 100 μl of sterile PBS for weekly injections. For eye drops, 10 μg of the peptide was dissolved in 50 μl of sterile PBS for twice daily drops (BID). For the slow-release formulation, 10 μg of the peptide was dissolved in 50 μl of coacervate for BID inoculation. The control was 50 μl of sterile PBS applied BID. The coacervate is a heparin and PEAD (1:3.6) mixture with each component at a 10 mg/mL concentration in water. The CXCL10p peptide was added at a 1:10 dilution in PBS to the final concentration.\nThe environmental dry eye model was used to test the CXCL10p peptide. Female New Zealand white rabbits (8 per group) were used at 125-175 days old (weighing 3-5 kg) at the time of induction. For induction of dry eye, all animals were dosed with atropine sulfate (1%) in both eyes (OU) twice daily (BID) for 2-3 weeks prior to test article administration to induce KCS. In addition, humidity in the animals' housing room was maintained at ~20% throughout the study to promote eye dryness. Non-responder animals were removed from the study at the end of the induction phase. […]"}, "[3]": {"tested_on": "TNFα mRNA in human conjunctival epithelial (HCjE) cells", "assay": "TNFα-mediated inflammation in HCjE cells (qRT-PCR)", "type": "cell-based", "method": "Primary human conjunctival epithelial (HCjE) cells were seeded at 40,000 cells per well in a 96 well flat bottom plate. After overnight adhesion in Keratinocyte-Serum Free Media (cK-SFM), the cells were washed and exposed to starvation media (SFM) for a further 24 hours. At this time the cells were exposed to TNFα (5 ng/ml) in the presence or absence of CXCL10p peptide (200 ng/ml). After 4 hours, the cells were harvested and tested for TNFα mRNA levels with GAPDH mRNA as the control for equalization."}, "[4]": {"tested_on": "MUC5AC transcripts", "assay": "Goblet cell study: qRT-PCR for MUC5AC transcripts in HCjE cells", "type": "cell-based, human", "conditions": "200 ng/ml or 2000 ng/ml, relative to vehicle only", "method": "as §1\nControl and CXCR3 activating peptide-treated HCjE cells are also examined for expression of MUC5AC transcripts by qRT-PCR."}},
  "note": "Ends that are not written are not given here.",
  "data": [
    {"substance": "OH-PESKAIKNLLKAVHKEMSKRSP-NH2 [CXCL10p peptide]", "values": [
      {"measurement": "frequency of intense magenta stained cell clusters (goblet cell clusters)", "setting": "[1]", "result": "increase in the frequency"},
      {"measurement": "staining with PAS reagent (proteoglycan content)", "setting": "[1]", "result": "more intense staining with PAS reagent"},
      {"measurement": "amount of aqueous tear (STT)", "setting": "[2]", "result": "uncorrected"},
      {"measurement": "reduction of TNFα mRNA levels", "setting": "[3]; HCjE cells, TNFα 5 ng/ml, peptide 200 ng/ml, 4 hours", "result": "approximately one quarter"},
      {"measurement": "TNFα mRNA levels", "setting": "[3]; HCjE challenged with TNFα, concurrent exposure to peptide", "result": "dampened the TNFα mRNA levels in a reproducible and statistically significant manner"},
      {"measurement": "levels of MUC5AC transcripts", "setting": "[4]", "result": "increased levels of MUC5AC transcripts"}
    ]}
  ]
}
